Assay [1] relates to TW06 cell transfected with firefly luciferase 2 reporter gene. Description: Tumor growth of mouse with intratumoral injection (in vivo imaging system). More on the design: species or system NOD/SCID mouse. The note with it: twice per week, 4 weeks, LIF 150-200 ng, sLIFR 1-2 μg, compared with PBS, FIGS. 3B, 3C. As to the method:
In addition, a TW06 cell transfected with firefly luciferase 2 reporter gene was subcutaneously injected into the thigh of a 7-week-old NOD/SCID (non-obese diabetic/severe-combined immunodeficient) mouse. Until the tumor on the mouse's thigh was grown to a volume of 50 mm^3, PBS, leukemia inhibitory factor (150-200 ng, twice per week, 4 weeks), or a soluble leukemia inhibitory factor receptor (1-2 μg, twice per week, 4 weeks) was intratumorally injected into the mouse. Finally, the mouse's tumor was observed, and its activity and volume were detected by an in vivo imaging system at a certain time point after the injection.

The test system of the next assay is CNE1 cells. Description: Resistance of nasopharyngeal cancer cell to radiation in various doses (xCelligence). The format is cell-based. The following applies: LIF 10 ng/ml; for IC50 value of the radiation for the treated cells: FIG. 4B. On the procedure:
Firstly, 6×10^3 CNE1 cells were seeded. After cultivated at 37° C. overnight, the seeded cells were treated with PBS and leukemia inhibitory factor (10 ng/ml), and then radiation in various doses were emitted to the treated cells. Finally, an xCelligence real time cell analyzer was used to detect the cell growth at a certain time point after this emission.

Assay [2] relates to nasopharyngeal cancer cell. Kind of assay: Caspase3/7 positive cells after substance treatment and radiation in 4 Gy. The format is cell-based. The following applies: radiation 4 Gy; 96th hour after emission; LIF versus sLIFR treatment; FIG. 4D.
In assay [3] the test system is TW06 cell transfected with firefly luciferase 2 reporter gene. Kind of assay: Tumor growth of mouse with intratumoral injection and radiation in 7 Gy. The note with it: twice per week, 4 weeks, LIF 150-200 ng, sLIFR 1-2 μg, radiation 7 Gy following first injection, FIGS. 5A, 5B. The format is in vivo, NOD/SCID mouse. As to the method:
A TW06 cell transfected with firefly luciferase 2 reporter gene was subcutaneously injected into the thigh of a 7-week-old NOD/SCID mouse. Until the tumor on the thigh was grown to a volume of 60-100 mm^3, PBS, leukemia inhibitory factor (150-200 ng, twice per week, 4 weeks), or a soluble leukemia inhibitory factor receptor (1-2 μg, twice per week, 4 weeks) was intratumorally injected into the mouse, and then radiation in a dose of 7 Gy were emitted to the mouse following the first injection. Finally, the mouse's tumor was observed, and its activity and volume were detected by an in vivo imaging system at a certain time point after the emission.

The next assay has as its system TW06 cells. Description: Growth of nasopharyngeal cancer cell in vitro (xCelligence real time cell analyzer). The note with it: sLIFR 1 μg/ml, LIF 10 ng/ml, compared among PBS, sLIFR plus LIF, FIG. 3A. Type of assay: cell-based. As to the method: 6×10^3 TW06 cells were seeded, and then cultivated at 37° C. overnight. These cells were treated with PBS, a soluble leukemia inhibitory factor receptor (1 μg/ml), leukemia inhibitory factor (10 ng/ml), or a soluble leukemia inhibitory factor receptor plus leukemia inhibitory factor. After which, an xCelligence real time cell analyzer (Roche Applied Science) was used to detect the cell growth at a certain time point after this treatment.

In another assay the test system is CNE1 cells or TW06 cells. Description: Cell survival after substance treatment and radiation in 4 Gy (xCelligence). The format is cell-based. The note with it: radiation 4 Gy, sLIFR 1 μg/ml, LIF 10 ng/ml, FIG. 4C. On the procedure: In another aspect, 6×10^3 CNE1 cells or TW06 cells were seeded, and then cultivated at 37° C. overnight. The cultivated cells were treated with PBS, a soluble leukemia inhibitory factor receptor (1 μg/ml), leukemia inhibitory factor (10 ng/ml), or leukemia inhibitory factor plus a soluble leukemia inhibitory factor receptor. After which, radiation in 4 Gy were emitted to the treated cells. Finally, an xCelligence real time cell analyzer was used to detect the cell survival at a certain time point after this emission.

Assay [4] has as its system ATM, p53, γH2AX, NBS1 or CDC25C. Description: Western blotting of apoptosis-related and DNA damage-related proteins after radiation in 4 Gy. The format is cell-based. The following applies: TW06 and CNE1 cells; radiation 4 Gy; 10th minute following emission; sLIFR versus LIF; FIGS. 4E, 4F.

In the case of “leukemia inhibitory factor: a cytokine belonging to the interleukin-6 family and mediating cell growth through inhibition of cell differentiation”, the “tumor volume of the mouse” value in assay [1] is “the biggest”. Besides, the “IC50 value of the radiation for the treated cells” value in the assay with CNE1 cells (48th hour after radiation emission (PBS 1.5 Gy)) was 3.7 Gy; in the assay with CNE1 cells (55th hour after radiation emission (PBS 1.3 Gy)), 5.8 Gy. For the same molecule, the “growth of cells with radiation emission” value in the assay on CNE1 cells (radiation in various doses, versus PBS, FIG. 4A) was “more obvious than that with PBS treatment and radiation emission”. For the same molecule, the Caspase3/7 expression level result in assay [2] is recorded as “low Caspase3/7 expression level”. Moreover, the “tumor volume of the mouse with radiation emission” value in assay [3] is reported as “the biggest”.

B1: soluble leukemia inhibitory factor receptor: non-transmembrane protein (soluble receptor) that can bind leukemia inhibitory factor (protein, UniProt P42702 45-833, looked up)
extracellular domain: QKKGAPHDLKCVTNNLQVWNCSWKAPSGTGRGTDYEVCIENRSRSCYQLEKTSIKIPALSHGDYEITINSLHDFGSSTSKFTLNEQNVSLIPDTPEILNLSADFSTSTLYLKWNDRGSVFPHRSNVIWEIKVLRKESMELVKLVTHNTTLNGKDTLHHWSWASDMPLECAIHFVEIRCYIDNLHFSGLEEWSDWSPVKNISWIPDSQTKVFPQDKVILVGSDITFCCVSQEKVLSALIGHTNCPLIHLDGENVAIKIRNISVSASSGTNVVFTTEDNIFGTVIFAGYPPDTPQQLNCETHDLKEIICSWNPGRVTALVGPRATSYTLVESFSGKYVRLKRAEAPTNESYQLLFQMLPNQEIYNFTLNAHNPLGRSQSTILVNITEKVYPHTPTSFKVKDINSTAVKLSWHLPGNFAKINFLCEIEIKKSNSVQEQRNVTIKGVENSSYLVALDKLNPYTLYTFRIRCSTETFWKWSKWSNKKQHLTTEASPSKGPDTWREWSSDGKNLIIYWKPLPINEANGKILSYNVSCSSDEETQSLSEIPDPQHKAEIRLDKNDYIISVVAKNSVGSSPPSKIASMEIPNDDLKIEQVVGMGKGILLTWHYDPNMTCDYVIKWCNSSRSEPCLMDWRKVPSNSTETVIESDEFRPGIRYNFFLYGCRNQGYQLLRSMIGYIEELAPIVAPNFTVEDTSADSILVKWEDIPVEELRGFLRGYLFYFGKGERDTSKMRVLESGRSDIKVKNITDISQKTLRIADLQGKTSYHLVLRAYTDGGVGPEKSMYVVTKENS
modifications: extracellular domain
Turning to B1, the growth of cells entry in the assay on TW06 cells is “the most unobvious”. Further, the “tumor volume of the mouse” value in assay [1] is recorded as “the smallest”. Moreover, the “growth of cells with radiation emission” value in the assay with CNE1 cells or TW06 cells is given as “the most unobvious”. The “activation/phosphorylation of apoptosis-related and DNA damage-related proteins” value in assay [4] is recorded as “activated/phosphorylated more strongly”. In assay [3], the “tumor volume of the mouse with radiation emission” value is on record as “the smallest”.

The values are drawn from patent publication US9194872B2, “Potentiation of nanopharyngeal cancer radiotherapy by inhibitors of leukemia inhibitory factor” (Chang Gung University, priority 2013, dated 2015).
